The target of data set [1] is T1, CRH-R1 receptor (Mus musculus, UniProt P35347).
T1 construct: monocyte/macrophage cells which express both the CRH-R1 and the CRH-R2 receptors on the surface; endogenous in cells; host or cells: macrophages in vitro (RAW 264.7 or Balb/c peritoneal macrophages, inferred)
T1 sequence (P35347 24-415): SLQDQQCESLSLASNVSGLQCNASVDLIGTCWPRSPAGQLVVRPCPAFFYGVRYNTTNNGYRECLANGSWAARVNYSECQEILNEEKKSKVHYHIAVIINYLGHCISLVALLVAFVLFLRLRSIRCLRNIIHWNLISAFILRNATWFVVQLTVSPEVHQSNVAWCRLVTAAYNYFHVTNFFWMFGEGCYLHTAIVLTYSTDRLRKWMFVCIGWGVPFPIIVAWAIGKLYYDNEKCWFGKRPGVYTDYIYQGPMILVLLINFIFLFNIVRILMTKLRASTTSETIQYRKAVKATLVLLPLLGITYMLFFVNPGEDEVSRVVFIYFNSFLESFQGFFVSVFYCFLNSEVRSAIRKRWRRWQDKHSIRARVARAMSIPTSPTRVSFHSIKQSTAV
The note with it: cited from earlier work.

Data set [2] concerns LPS-induced endotoxin shock in Balb/c mice. How it is done: Male 20- to 25-g Balb/c mice 8 to 10 weeks old were used. They were kept in our animal facility for at least one week prior to each experiment to allow adjustment and confirmation of their health. Each animal received rodent laboratory chow and water ad libitum. The CRH-R1 antagonist used was provided by the Pediatric and Reproductive Endocrinology Branch, NICHD, NIH, Bethesda, Md. Antalarmin was initially dissolved into 100% ethanol at a concentration of 200 mg/ml and then diluted in a 1:1 ratio with Cremaphor EL (Sigma), and finally brought to a working stock of 2 mg/ml antalarmin in 10% ethanol and 10% Cremaphor EL in sterile water. E coli lipopolysaccharide (serotype 0111:B4, cat. # L2630) and Salmonella enteritidis lipopolysaccharide (cat. # L6011) were purchased from Sigma. The antibodies and the reagents for the TNF-α, IL-1β and IL-6 determination were purchased from R&D (NE, USA).
For the determination of the LD50 groups composed of five mice were injected intraperitoneally (i.p) with either 200, 400, 600, 700 or 1000 μg/mouse of Salmonella-derived LPS (Sigma) dissolved in PBS at a concentration of 10 mg/ml. Survival of animals was monitored for a period of seven days. The same protocol was used for E. coli-derived LPS (O111:B4). To determine the effect of antalarmin in the survival of mice injected with LPS, 40 mice were divided in four different groups; the first group received antalarmin at a concentration of 20 mg/kg of body weight; the second received antalarmin at 20 mg/kg of body weight and LPS at a concentration of 0.7 mg per 25 g of body weight; the third group received LPS and the antalarmin diluent while the fourth group received the antalarmin diluent alone.

For data set [3] the test system is unchanged. Kind of data set: Serum proinflammatory cytokines (ELISA) in LPS-induced endotoxin shock. The data set is classed as in vivo. The settings on record: for TNF-α level / IL-6 level / IL-1β level: antalarmin pre-treated vs LPS alone; for IL-6 level / IL-1β level: 4 hours after LPS; for IL-1β level: p=0.013. How it is done: (§1) Each time point and treatment group was composed of five animals per experiment. Sera were collected and frozen until used for cytokine determination by ELISA according to manufacturer (R&D, NE, USA). Similarly, cell culture supernatants were collected 24 hours following stimulation and stored at −70° C. until analyzed. Corticosterone was measured by RIA in serum collected 1 hour following LPS administration. Five animals per treatment were used. Sera were frozen at −70° C. and analyzed as recommended by the manufacturer (ICN, USA).

The target in data set [4] is T2, CRH-R1 receptor (Rattus norvegicus, UniProt P35353).
T2 construct: endogenous in cells; host or cells: PC12 rat pheochromocytoma cells
T2 sequence (P35353 24-415): T1 sequence (P35347 24-415) with Q6R, S9N, A13T, I95V, Y229H
The settings on record: PC12 rat pheochromocytoma cells; cited from earlier work.

The test system of another data set is Balb/c mice. Kind of data set: Determination of the LD50 of LPS i.p. Type of data set: in vivo.
A further data set deals with T3, CRH-R2 receptor (Mus musculus, UniProt Q60748).
T3 construct: monocyte/macrophage cells which express both the CRH-R1 and the CRH-R2 receptors on the surface; endogenous in cells; host or cells: macrophages
T3 sequence (Q60748 whole entry): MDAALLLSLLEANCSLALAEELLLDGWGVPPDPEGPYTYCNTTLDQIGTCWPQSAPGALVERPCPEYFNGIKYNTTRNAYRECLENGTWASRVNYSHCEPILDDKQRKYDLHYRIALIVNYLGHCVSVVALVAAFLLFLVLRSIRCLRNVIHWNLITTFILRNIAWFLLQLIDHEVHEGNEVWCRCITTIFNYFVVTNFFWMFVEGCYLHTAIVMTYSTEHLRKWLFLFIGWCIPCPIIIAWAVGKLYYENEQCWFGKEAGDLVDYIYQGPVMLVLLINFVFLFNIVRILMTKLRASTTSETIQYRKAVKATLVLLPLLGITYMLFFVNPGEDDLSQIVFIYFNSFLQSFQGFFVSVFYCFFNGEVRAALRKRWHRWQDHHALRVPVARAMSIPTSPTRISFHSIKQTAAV
The note with it: cited from earlier work.

Data set [5] deals with RAW264.7 cells. Description: LPS-induced cytokine secretion from RAW264.7 macrophages (ELISA). The data set is classed as cell-based, mouse. As to the method:
(§2) RAW 264.7 cells were cultured in Dulbecco's Modified Eagle Medium supplemented with 10% fetal calf serum (FCS), 10 mM L-glutamine, 100 U/ml penicillin, 0.1 mg/ml streptomycin (all purchased by Gibco), at 5% CO2 and 37° C. Cells were plated in 25 cm^2 flasks one day prior to stimulation. Cells were then stimulated with 10 μg/ml Ecoli-derived LPS (serotype 0111:B4, cat. # L2630, Sigma) and recombinant CRH (Sigma) at a concentration of 10^−8 M.
as §1, with “Serum from trunk blood was collected as follows: a) for the determination of TNF-α 1 hour after LPS administration and b) at 4 hours for the determination of IL-1β or IL-6 levels. Each” for “Each”
(An ELISA detects its analyte on a solid surface through an enzyme-linked reagent.)

The subject of data set [6] is RAW264.7 cells. Description: Cytokine mRNA in RAW264.7 cells, semi-quantitative RT-PCR. Type of data set: cell-based, mouse. As to the method:
as §2
(§3) Total cellular RNA was isolated using Trizol reagent (Gibco). Following reverse transcription (Thermoscript RT, Invitrogen), 1 μl of the cDNA product was amplified by PCR at 33 cycles. […] Intensity of the bands was quantified using TINAscan software.
(§4) Primers for actin were: sense, 5′-TCAGAAGAACTCCTATGTGG-3′; antisense, 5′-TCTCTTTGATGTCACGCACG-3′, giving a 499 bp product; for Tnf-α were: 5′-CACGCTCTTCTGTCTACTGAACTTCG-3′; 5′-GGCTGGGTAGAGAATGGATGAACACC-3′, giving a 590 bp product; for IL-1β were 5′-GGATGAGGACATGAGCACCT-3′ and 5′-TCCATTGAGGTGGAGAGCTT-3′, resulting in a 196 bp product; for IL-6,5′-TGAAGTTCCTCTCTGCAAGAGACT-3′,5′-TGA GGA AGG CCG TGG TTG T-3′, giving a 200 bp product. […] The quantitation was performed using the “TI-NAscan” software. […]

Data set [7] concerns thioglycollate-elicited peritoneal macrophages. Kind of data set: Cytokine mRNA in thioglycollate-elicited peritoneal macrophages, RT-PCR. Type of data set: cell-based, Balb/c mice. As to the method: A 4% thioglycollate solution was prepared and autoclaved 2 days prior to administration. 1.5 ml of the thioglycollate solution was injected intraperitoneally in BALB/c mice and peritoneal macrophages were isolated by lavage of the peritoneal cavity with Dulbecco's Modified Medium. Cells were then cultured in DMEM supplemented with 10% FCS, 10 mM L-glutamine, 100 U/ml penicillin, 0.1 mg/ml streptomycin (Gibco). Cells were plated at a concentration of 5×10^5/ml and maintained in culture 24 hours prior to stimulation.
as §3, §4

Where [8] appears, read: CRH 1×10^−8 M plus LPS 10 μg/ml, 24 hours, vs LPS alone, p=0.04.

Residue numbers refer to the chain shown, from its start. “Also recorded” adds a separate entry of the source. No end group written: not given here.

Consider `CCCCN(CC)c1nc(C)nc2c1c(C)c(C)n2-c1c(C)cc(C)cc1C` [antalarmin], for which the “effect on the enhancing effect of CRH” value on CRH-R1 receptor [1] (macrophages in vitro, LPS) was “blocked completely”. Besides, the “mice still alive at 18 h” value in data set [2] (E coli-derived LPS 0.7 mg/25 g, antalarmin pre-treatment, all animals with LPS alone had died) turned out to be 72%. Further, in data set [2] (E coli-derived LPS, in the presence of antalarmin, p=0.002, observed 7 days), the overall survival entry is “significantly improved”. The “animals that had died at 18 hours” value in data set [2] (Salmonella enteritidis-derived LPS 0.7 mg/25 g i.p., antalarmin 20 mg/kg IP 1.5 h prior to LPS, LPS alone 60%) was 20%. Also, the TNF-α level entry was “significantly reduced” in [3] (1 h after LPS, p=0.001) and “significantly lower” in [3] (2 hours after LPS injection, p<0.001). Also, the IL-6 level entry in data set [3] (p<0.001) is “significantly lower”; in data set [3] (p<0.001, listed as Antalarmin), “significantly reduced”. For the same molecule, the IL-1β level result was “significantly lower” in data set [3] and “significantly reduced” in data set [3] (listed as Antalarmin). Moreover, the “IL-6 level of LPS treated animals compared with LPS plus antalarmin treated mice” value in [3] (6 hours after LPS, p<0.001, value describes LPS alone relative to LPS plus antalarmin) is on record as “significantly higher”. Besides, in data set [3] (6 hours after LPS, p<0.01, value describes LPS alone relative to LPS plus antalarmin), the “IL-1β level of LPS treated animals compared with LPS plus antalarmin treated mice” value is “significantly higher”. For the same molecule, the “effect on CRH-mediated effects (p38, Fas ligand, apoptosis)” value at CRH-R1 receptor [4] is “blocks all”.

As for Lipopolysaccharide [LPS], the animals survived entry in the data set on Balb/c mice (LPS 0.2 mg/25 g i.p.) is “One hundred”; in the data set with Balb/c mice (LPS 0.4 mg/25 g i.p.), 80%; in the data set with Balb/c mice (LPS 0.6 mg/kg i.p. (so in the source)), 40%; in the data set on Balb/c mice (LPS 0.7 mg/25 g i.p.), “none”; in the data set with Balb/c mice (LPS 1 mg/25 g i.p.), “none”. Also, the LD100 with Balb/c mice (LPS i.p., mice) is ≥ 0.7 mg per 25 g of body weight. This molecule also came in with an LD50 in the data set on Balb/c mice (LPS i.p., mice, survival monitored seven days) of 0.5 mg per 25 g body weight.

For “Urocortin II (IVLSLDVPIGLLQILLEQARARAAREQATTNARILARVGHC; ends and bridges not checked; UniProt Q96RP3 72-112, looked up) [CRH-related peptide that induces macrophage apoptosis via the CRH-R2 receptor]”, the apoptosis on macrophages result in the data set with CRH-R2 receptor is given as “induce apoptosis”.

In the case of corticotropin-releasing hormone [CRH], the “LPS-induced IL-1β secretion” value in the data set on RAW264.7 cells [5] (CRH 1×10^−8 M plus LPS 10 μg/ml, 24 hours, vs LPS alone, p=0.01) is on record as “potentiates; also recorded: significantly augmented”. In the data set with RAW264.7 cells [5] (setting [8]), the “LPS-induced IL-6 secretion” value is given as “potentiates; also recorded: significantly augmented” and the “LPS-induced TNF-α secretion” value is reported as “significantly higher; also recorded: significantly augmented”. Also, the “cytokine secretion, CRH alone” value in the data set on RAW264.7 cells [5] (CRH 1×10^−8 M without LPS) is reported as “only a minimal effect”. Besides, the “LPS-induced cytokine transcription (IL-1β, TNF-α, IL-6 mRNA)” value in the data set with RAW264.7 cells [6] (CRH plus LPS, densitometry normalized versus actin) was “further potentiates; also recorded: strongly augmented”. Moreover, in the data set on RAW264.7 cells [6] (CRH without LPS), the “transcription of IL-1β, TNF-α, or IL-6, CRH alone” value is reported as “induces expression; also recorded: minimal transcription”. For the same molecule, the “LPS-induced pro-inflammatory cytokine expression” value in data set [7] (CRH plus LPS) is given as “augments; also recorded: significantly augmented”. In addition, in data set [7] (CRH without LPS), the “TNF-α, IL-1β or IL-6 transcription, CRH alone” value is “unable to induce”. Further, the “inflammatory response to lipopolysaccharide (LPS) of macrophages” value in the data set with CRH-R1 receptor [1] (in vitro) is on record as “enhances”. Moreover, in the data set with CRH-R1 receptor [4], the Fas ligand production entry is “stimulates”, the apoptosis result is on record as “induces apoptosis” and the “p38 mitogen-activated protein kinase” value is listed as “activates”.

With sauvagine-30, the “effect on Urocortin / Urocortin II induced macrophage apoptosis” value on CRH-R2 receptor is listed as “completely abolishes”.

The record behind these values is patent US20090247558A1, “USE OF THE CRH (CORTICOTROPIN RELEASING HORMONE) - UCN (UROCORTIN) SYSTEM IN THE TREATMENT OF INFLAMMATORY DISEASES” (priority 2002, published 2009).
